Laboratory results from ChEMBL document CHEMBL5537122, “Design, synthesis, and biological evaluation of 4-(2-fluorophenoxy)-7-methoxyquinazoline derivatives as dual EGFR/c-Met inhibitors for the treatment of NSCLC” (Eur J Med Chem, 2024).
pIC50: −log10 of the molar value.

What was measured:
[1] = system: NCI-H1975; assay: Antiproliferative activity against human NCI-H1975 cells overexpressing c-Met and EGFR assessed as reduction in cell viability incubated for 72 hrs by MTT assay; assay type: functional, cell-based; conditions: NCI-H1975, 72 h
[2] = system: A549; assay: Antiproliferative activity against human A549 cells overexpressing c-Met and EGFR assessed as reduction in cell viability incubated for 72 hrs by MTT assay; assay type: functional, cell-based; conditions: A549, 72 h
[3] = system: PC-9; assay: Antiproliferative activity against human PC-9 cells overexpressing c-Met and EGFR assessed as reduction in cell viability incubated for 72 hrs by MTT assay; assay type: functional, cell-based; conditions: PC-9, 72 h
[4] = molecular target: Epidermal growth factor receptor (Homo sapiens, UniProt P00533, L858R); assay: biochemical
[5] = molecular target: Epidermal growth factor receptor (Homo sapiens, UniProt P00533); assay: biochemical
Description: Inhibition of N-terminal GST tagged human recombinant EGFR (695 to end residues) expressed in baculovirus infected Sf9 cells using Poly (4:1 Glu, Tyr) as substrate incubated for 60 mins in presence of ATP by ADP-Glo luminescent assay

[6] = molecular target: Hepatocyte growth factor receptor (Homo sapiens, UniProt P08581); assay: biochemical
Description: Inhibition of N-terminal GST tagged human recombinant c-Met (956 to end residues) expressed in baculovirus infected Sf9 cells using Poly (4:1 Glu, Tyr) as substrate incubated for 60 mins in presence of ATP by ADP-Glo luminescent assay

[7] = species on record: Homo sapiens; assay: Inhibition of EGFR T790/C797S mutant (unknown origin) at 10 uM relative to control
[8] = system: A549; assay: Induction in apoptosis in human A549 cells overexpressing c-MET assessed as early apoptotic cells at 1 uM incubated for 24 hrs by Annexin V-FITC/Propidium Iodide staining based flow cytometry analysis (reference value: 7.27 %); assay type: functional
[9] = system: NCI-H1975; assay: Induction in apoptosis in human NCI-H1975 cells assessed as viable cells at 1 uM incubated for 24 hrs by Annexin V-FITC/Propidium Iodide staining based flow cytometry analysis (reference value: 91.58 %); assay type: functional; conditions: read-out: Activity
[10] = system: L02; assay: Induction in apoptosis in human L02 cells assessed as necrotic cells at 1 uM incubated for 24 hrs by Annexin V-FITC/Propidium Iodide staining based flow cytometry analysis (reference value: 6.63 %); assay type: toxicity, cell-based; conditions: l02, 24 h
[11] = Hemolytic activity in sheep erythrocytes at 64 ug/ml incubated for 2 hr by UV spectrophotometer relative to control; assay type: toxicity, cell-based, Ovis aries, Erythrocyte; conditions: at 64 µg/mL, read-out: Activity
[12] = system: A549; assay: Induction of cell cycle arrest in human A549 cells overexpressing c-MET assessed as accumulation of cells at S phase at 1 uM incubated for 24 hrs by RNase A/propidium iodide staining based flow cytometric analysis (reference value: 37.87 %); assay type: functional
[13] = system: A549; assay: Induction in apoptosis in human A549 cells overexpressing c-MET assessed as late apoptotic cells at 1 uM incubated for 24 hrs by Annexin V-FITC/Propidium Iodide staining based flow cytometry analysis (reference value: 7.59 %); assay type: functional
[14] = system: A549; assay: Induction in apoptosis in human A549 cells overexpressing c-MET assessed as necrotic cells at 1 uM incubated for 24 hrs by Annexin V-FITC/Propidium Iodide staining based flow cytometry analysis (reference value: 3.22 %); assay type: functional
[15] = system: A549; assay: Induction in apoptosis in human A549 cells overexpressing c-MET assessed as viable cells at 1 uM incubated for 24 hrs by Annexin V-FITC/Propidium Iodide staining based flow cytometry analysis (reference value: 81.92 %); assay type: functional; conditions: read-out: Activity
[16] = system: L02; assay: Induction in apoptosis in human L02 cells assessed as early apoptotic cells at 1 uM incubated for 24 hrs by Annexin V-FITC/Propidium Iodide staining based flow cytometry analysis (reference value: 0.26 %); assay type: toxicity, cell-based; conditions: l02, 24 h
[17] = system: L02; assay: Induction in apoptosis in human L02 cells assessed as late apoptotic cells at 1 uM incubated for 24 hrs by Annexin V-FITC/Propidium Iodide staining based flow cytometry analysis (reference value: 0.36 %); assay type: toxicity, cell-based; conditions: l02, 24 h
[18] = system: NCI-H1975; assay: Induction in apoptosis in human NCI-H1975 cells assessed as late apoptotic cells at 1 uM incubated for 24 hrs by Annexin V-FITC/Propidium Iodide staining based flow cytometry analysis (reference value: 4.46 %); assay type: functional
[19] = Induction in apoptosis in human L02 cells assessed as viable cells at 1 uM incubated for 24 hrs by Annexin V-FITC/Propidium Iodide staining based flow cytometry analysis (reference value: 92.75 %); assay type: toxicity, cell-based; conditions: read-out: Activity
[20] = system: NCI-H1975; assay: Induction in apoptosis in human NCI-H1975 cells assessed as necrotic cells at 1 uM incubated for 24 hrs by Annexin V-FITC/Propidium Iodide staining based flow cytometry analysis (reference value: 1.42 %); assay type: functional
[21] = system: A549; assay: Induction of cell cycle arrest in human A549 cells overexpressing c-MET assessed as accumulation of cells at G1/G0 phase at 1 uM incubated for 24 hrs by RNase A/propidium iodide staining based flow cytometric analysis (reference value: 49.24 %); assay type: functional
[22] = system: NCI-H1975; assay: Induction in apoptosis in human NCI-H1975 cells assessed as early apoptotic cells at 1 uM incubated for 24 hrs by Annexin V-FITC/Propidium Iodide staining based flow cytometry analysis (reference value: 2.54 %); assay type: functional

Epidermal growth factor receptor (Homo sapiens, UniProt P00533, L858R), sequence (P00533 25-1210 L858R limits assumed): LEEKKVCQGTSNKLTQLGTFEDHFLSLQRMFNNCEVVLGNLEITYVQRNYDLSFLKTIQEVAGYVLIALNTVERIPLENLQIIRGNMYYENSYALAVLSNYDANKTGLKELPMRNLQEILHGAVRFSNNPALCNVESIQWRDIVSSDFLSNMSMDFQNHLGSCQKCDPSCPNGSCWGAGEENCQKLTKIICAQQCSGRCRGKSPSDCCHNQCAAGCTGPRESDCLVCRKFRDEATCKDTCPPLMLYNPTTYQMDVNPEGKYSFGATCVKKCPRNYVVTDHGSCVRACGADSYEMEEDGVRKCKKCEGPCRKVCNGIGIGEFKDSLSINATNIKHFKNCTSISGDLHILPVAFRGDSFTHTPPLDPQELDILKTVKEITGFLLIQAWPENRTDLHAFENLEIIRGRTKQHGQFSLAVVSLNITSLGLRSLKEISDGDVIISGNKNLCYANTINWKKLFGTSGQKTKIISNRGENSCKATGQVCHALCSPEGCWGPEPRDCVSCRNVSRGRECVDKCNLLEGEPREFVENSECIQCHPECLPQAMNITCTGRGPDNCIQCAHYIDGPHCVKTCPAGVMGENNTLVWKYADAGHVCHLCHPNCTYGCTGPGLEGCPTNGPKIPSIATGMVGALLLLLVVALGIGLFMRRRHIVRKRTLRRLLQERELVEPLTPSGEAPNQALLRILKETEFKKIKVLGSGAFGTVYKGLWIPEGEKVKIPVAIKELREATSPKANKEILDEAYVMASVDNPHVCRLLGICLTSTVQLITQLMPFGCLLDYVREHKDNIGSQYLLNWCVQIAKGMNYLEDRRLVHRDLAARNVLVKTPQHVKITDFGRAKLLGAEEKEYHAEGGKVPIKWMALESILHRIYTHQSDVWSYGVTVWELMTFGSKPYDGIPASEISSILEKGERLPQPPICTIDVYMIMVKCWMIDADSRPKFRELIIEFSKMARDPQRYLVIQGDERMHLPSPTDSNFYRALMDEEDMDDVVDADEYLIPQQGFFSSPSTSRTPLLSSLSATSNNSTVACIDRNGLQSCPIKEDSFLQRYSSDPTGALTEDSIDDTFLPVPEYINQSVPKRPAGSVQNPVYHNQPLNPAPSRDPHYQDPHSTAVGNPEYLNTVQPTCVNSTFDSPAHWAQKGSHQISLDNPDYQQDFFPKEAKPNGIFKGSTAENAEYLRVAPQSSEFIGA
Hepatocyte growth factor receptor, sequence (P08581 whole entry): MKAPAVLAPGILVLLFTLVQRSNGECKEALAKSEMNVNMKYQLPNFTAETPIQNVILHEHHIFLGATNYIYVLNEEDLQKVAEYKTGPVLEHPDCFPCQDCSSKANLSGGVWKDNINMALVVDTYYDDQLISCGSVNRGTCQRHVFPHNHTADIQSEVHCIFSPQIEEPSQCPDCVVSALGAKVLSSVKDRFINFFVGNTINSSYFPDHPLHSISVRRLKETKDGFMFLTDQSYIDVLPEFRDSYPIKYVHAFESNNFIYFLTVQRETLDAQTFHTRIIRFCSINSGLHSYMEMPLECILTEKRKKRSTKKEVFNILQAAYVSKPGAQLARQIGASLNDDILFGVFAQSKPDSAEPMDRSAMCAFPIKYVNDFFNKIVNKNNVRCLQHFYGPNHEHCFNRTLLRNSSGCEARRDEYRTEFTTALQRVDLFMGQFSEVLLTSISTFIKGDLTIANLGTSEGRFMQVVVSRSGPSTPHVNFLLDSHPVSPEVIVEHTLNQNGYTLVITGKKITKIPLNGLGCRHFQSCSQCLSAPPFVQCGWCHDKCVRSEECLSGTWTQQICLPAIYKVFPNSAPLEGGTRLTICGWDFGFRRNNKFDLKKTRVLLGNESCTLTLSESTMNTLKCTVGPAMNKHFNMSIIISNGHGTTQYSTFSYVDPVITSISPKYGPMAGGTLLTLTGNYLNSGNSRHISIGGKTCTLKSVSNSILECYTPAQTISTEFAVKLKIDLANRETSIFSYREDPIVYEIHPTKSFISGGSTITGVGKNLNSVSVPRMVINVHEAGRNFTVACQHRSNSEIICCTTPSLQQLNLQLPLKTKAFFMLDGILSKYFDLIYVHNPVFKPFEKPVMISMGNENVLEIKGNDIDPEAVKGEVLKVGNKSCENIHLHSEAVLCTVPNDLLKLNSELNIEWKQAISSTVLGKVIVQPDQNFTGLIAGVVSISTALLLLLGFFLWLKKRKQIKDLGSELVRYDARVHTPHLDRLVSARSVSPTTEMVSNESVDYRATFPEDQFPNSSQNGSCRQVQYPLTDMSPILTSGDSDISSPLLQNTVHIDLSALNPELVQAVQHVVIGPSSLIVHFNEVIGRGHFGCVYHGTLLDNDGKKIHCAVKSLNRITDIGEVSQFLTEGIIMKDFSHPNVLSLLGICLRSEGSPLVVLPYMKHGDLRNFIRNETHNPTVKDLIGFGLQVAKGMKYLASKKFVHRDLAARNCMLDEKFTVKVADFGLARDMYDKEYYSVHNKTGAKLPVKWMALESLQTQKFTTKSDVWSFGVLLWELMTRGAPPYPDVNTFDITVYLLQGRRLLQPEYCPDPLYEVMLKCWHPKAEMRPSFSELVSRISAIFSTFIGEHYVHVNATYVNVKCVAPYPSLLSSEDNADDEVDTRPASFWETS
Epidermal growth factor receptor (Homo sapiens, UniProt P00533), sequence (P00533 whole entry): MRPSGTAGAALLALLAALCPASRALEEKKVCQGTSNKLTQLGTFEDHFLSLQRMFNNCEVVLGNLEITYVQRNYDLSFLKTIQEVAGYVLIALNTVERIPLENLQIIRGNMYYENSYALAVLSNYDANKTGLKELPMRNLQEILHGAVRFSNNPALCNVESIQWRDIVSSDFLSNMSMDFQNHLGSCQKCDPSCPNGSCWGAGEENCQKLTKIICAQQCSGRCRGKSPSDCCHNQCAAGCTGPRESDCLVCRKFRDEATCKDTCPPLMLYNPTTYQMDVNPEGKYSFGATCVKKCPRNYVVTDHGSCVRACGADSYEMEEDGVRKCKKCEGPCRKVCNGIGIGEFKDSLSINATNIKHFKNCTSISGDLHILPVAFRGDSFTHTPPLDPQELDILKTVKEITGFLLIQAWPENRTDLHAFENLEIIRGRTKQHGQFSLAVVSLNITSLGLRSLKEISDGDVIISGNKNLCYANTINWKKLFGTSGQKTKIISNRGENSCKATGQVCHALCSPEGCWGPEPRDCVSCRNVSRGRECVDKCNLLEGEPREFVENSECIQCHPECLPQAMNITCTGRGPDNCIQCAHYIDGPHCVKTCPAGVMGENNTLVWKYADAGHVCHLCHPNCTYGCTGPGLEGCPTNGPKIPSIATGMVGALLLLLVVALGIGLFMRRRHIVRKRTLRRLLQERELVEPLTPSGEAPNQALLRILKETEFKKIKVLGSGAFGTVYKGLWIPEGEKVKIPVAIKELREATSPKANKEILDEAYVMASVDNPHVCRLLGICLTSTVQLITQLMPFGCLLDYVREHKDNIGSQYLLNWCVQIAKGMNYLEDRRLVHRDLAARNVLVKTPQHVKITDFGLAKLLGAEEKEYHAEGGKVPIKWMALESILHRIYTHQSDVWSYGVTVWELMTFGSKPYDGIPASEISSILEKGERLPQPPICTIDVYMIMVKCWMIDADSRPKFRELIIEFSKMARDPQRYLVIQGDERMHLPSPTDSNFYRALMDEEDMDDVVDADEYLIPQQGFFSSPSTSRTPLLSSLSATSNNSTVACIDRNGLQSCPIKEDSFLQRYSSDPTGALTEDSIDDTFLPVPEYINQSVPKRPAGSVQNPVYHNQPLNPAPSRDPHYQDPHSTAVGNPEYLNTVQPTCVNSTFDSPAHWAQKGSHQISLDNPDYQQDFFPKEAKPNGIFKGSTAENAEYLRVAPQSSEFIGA

| SMILES | pIC50 [1] | pIC50 [2] | pIC50 [3] | pIC50 [4] | pIC50 [5] | pIC50 [6] | also measured |
| --- | --- | --- | --- | --- | --- | --- | --- |
| CCCC(=O)Nc1cc2c(Oc3ccc(NC(=O)CCCc4ccc(F)cc4)cc3F)ncnc2cc1OC | 4.92 | < 4.30 | < 4.30 | < 5.00 | < 5.00 | 6.32 | – |
| CCC(=O)Nc1cc2c(Oc3ccc(NC(=O)CCCc4ccsc4)cc3F)ncnc2cc1OC | < 4.30 | 4.91 | 5.39 | < 5.00 | < 5.00 | 6.24 | – |
| C=CC(=O)Nc1cc2c(Oc3ccc(NC(=O)NCCc4ccc(OC)c(OC)c4)cc3F)ncnc2cc1OC | 4.94 | 5.17 | 5.61 | 5.38 | 5.63 | 6.94 | – |
| CCCCC(=O)Nc1cc2c(Oc3ccc(NC(=O)CCCc4ccsc4)cc3F)ncnc2cc1OC | 4.43 | < 4.30 | < 4.30 | < 5.00 | < 5.00 | 5.81 | – |
| COc1cc2c(Oc3ccc(NC(=O)C4(C(=O)Nc5ccc(F)cc5)CC4)cc3F)ccnc2cc1OCCCN1CCOCC1 | – | – | – | – | – | – | inhibition [7]: < 50% |
| C/C=C/C(=O)Nc1cc2c(Oc3ccc(NC(=O)CCCc4ccccc4)cc3F)ncnc2cc1OC | 5.33 | 5.27 | 5.24 | 5.45 | 5.54 | 6.33 | – |
| CCCC(=O)Nc1cc2c(Oc3ccc(NC(=O)CCCc4ccc(OC)cc4)cc3F)ncnc2cc1OC | 4.79 | 5.11 | < 4.30 | 5.05 | 5.12 | 6.22 | – |
| C/C=C/C(=O)Nc1cc2c(Oc3ccc(NC(=O)c4sc(-c5ccccc5)nc4C)cc3F)cccc2cc1OC | < 4.30 | 4.35 | < 4.30 | < 5.00 | 5.63 | 7.02 | – |
| C=CC(=O)Nc1cc2c(Oc3ccc(NC(=O)NCCc4csc(Br)c4)cc3F)ncnc2cc1OC | 5.22 | 5.39 | 5.44 | 5.82 | 5.68 | 6.60 | – |
| COc1cc2ncnc(Oc3ccc(NC(=O)CCCc4ccc(F)cc4)cc3F)c2cc1NC(=O)CCC(C)C | 4.92 | < 4.30 | < 4.30 | < 5.00 | < 5.00 | 6.15 | – |
| CN(C)C/C=C/C(=O)Nc1cc2c(Nc3ccc(F)c(Cl)c3)ncnc2cc1O[C@H]1CCOC1 [AFATINIB] | – | – | – | – | – | – | Activity [8]: 9.36%; viability at 1 µM [9]: 89.7%; Activity [10]: 3.78%; hemolysis at 2 h, 64 ug/ml [11]: < 5%; Activity [12]: 36.86%; Activity [13]: 12.21%; Activity [14]: 5.8%; viability at 1 µM [15]: 72.6%; Activity [16]: 0.19%; Activity [17]: 0.26%; Activity [18]: 6.17%; viability at 24 h, 1 µM [19]: 95.8%; Activity [20]: 1.88%; Activity [21]: 52.24%; Activity [22]: 2.21% |
| C=CC(=O)Nc1cc2c(Oc3ccc(NC(=O)CCCc4ccccc4)cc3F)ncnc2cc1OC | 5.87 | 5.65 | 5.61 | 6.30 | 6.41 | 6.18 | – |
| CCC(=O)Nc1cc2c(Oc3ccc(NC(=O)CCCc4ccc(F)cc4)cc3F)ncnc2cc1OC | 5.88 | 5.43 | 5.51 | 5.27 | 5.16 | 6.45 | – |
| COc1ccc(CCCC(=O)Nc2ccc(Oc3ncnc4cc(OC)c(NC(=O)CCC(C)C)cc34)c(F)c2)cc1 | 4.98 | < 4.30 | < 4.30 | < 5.00 | < 5.00 | < 5.00 | – |
| C/C=C/C(=O)Nc1cc2c(Oc3ccc(NC(=O)c4c(-c5c(Cl)cccc5Cl)noc4C)cc3F)cccc2cc1OC | 4.76 | 4.71 | 5.21 | < 5.00 | < 5.00 | 5.47 | – |
| C=CC(=O)Nc1cc2c(Oc3ccc(NC(=O)CCCc4ccc(OC)cc4)cc3F)ncnc2cc1OC | 5.68 | 5.51 | 4.71 | 6.16 | 6.25 | 6.46 | – |
| C=CC(=O)Nc1cc2c(Oc3ccc(NC(=O)CCCc4ccc(F)cc4)cc3F)ncnc2cc1OC | 5.09 | 5.68 | 5.34 | 5.97 | 6.11 | 6.45 | – |
| CCC(=O)Nc1cc2c(Oc3ccc(NC(=O)CCCc4ccccc4)cc3F)ncnc2cc1OC | 5.40 | 5.15 | 5.59 | 5.64 | 5.84 | 6.35 | – |
